Data set [1] can be described thus: bioequivalence study in rats: d-tetrandrine plasma concentration after oral gavage of free base versus hydrochloride salt (HPLC). Type of data set: in vivo, Sprague-Dawley rats. The protocol: A bioequivalence study in rats was conducted to compare the rate and extent to which the active drug ingredient (d-tetrandrine) is absorbed from a free base versus a hydrochloride salt. The drug ingredients were formulated in capsules by the University of Kentucky Center for Pharmaceutical Sciences and Technology (CPST) to administer equivalent amounts of d-tetrandrine to rats via oral gavage. Dosing syringes, capsule filling apparatus and mini capsules (size 9) appropriate for dosing rats were obtained from Torpac (Fairfield, N.J.).
A single rat per time point (destructive sampling) was used to obtain as much blood volume as possible for the HPLC analysis. This was necessary to accommodate analysis with the current UV based HPLC assay that had extensively been used at CBA Pharma. The JPLC analyses were performed at the CBA Pharma facilities, by a scientist with extensive experience in plasma based assay. Results were provided to a second scientist for evaluation and modeling.
Given the limited information on rat d-tetrandrine pharmacokinetics (PK), the studies were conducted in stages. A preliminary study (pilot) to identify the dose required for adequate assay sensitivity was first conducted using approximately 25 mg/kg and approximately 120 mg/kg doses administered in capsules. Four animals per dose level per formulation (acid or base) were administered drug. Sprague-Dawley rats were used for these studies and were obtained from Harlan Laboratories at least one weak prior to the experiments to allow animals to recover from shipping stress and to acclimate. Animals weighed 200-250 g at the time of the experiments. Animals were euthanized one hour after drug administration and blood was collected in EDTA containing tubes via cardiac puncture and rapidly centrifuged to separate the plasma. Typically, enough plasma was obtained to afford duplicate sample analysis. The plasma was stored at −80° C. until it was transported to CBA Pharma facilities in Styrofoam containers containing dry ice.
However, multiple capsules required for dosing higher doses were contributing to the pharmacokinetic variability observed in initial pilot studies. Thus in subsequent studies, younger and smaller animals were administered doses of approximately 150 mg/kg, and blood samples were obtained two hours after drug administration. These smaller animals were more difficult to dose because the size of the tablet. Three animals from the “acid” group and two animals from the “base” group were excluded based on the technician's judgment that some tissue damage had been done to the animals during the gavage dosing. […]
In some cases the plasma concentrations could not be determined due to extremely high interfering peaks. […]

A short description of data set [2]: dissolution in water when preparing the liquid dosing formulation. The note with it: for 200 mg/kg dosing preparation. It is filed as physicochemical. Here is the method: Thus three animals were administered 200 mg/kg of each the acid and base formulations in liquid or suspension, respectively, to determine if the dosing and/or variability would improve. […] The solution, and suspension were prepared in water with 0.25% carboxymethylcellulose to facilitate fluidity during dosing. Samples were collected at 30 minutes, 1, 2, 5 and 24 hours after administration of […].

Consider `COc1ccc2cc1Oc1ccc(cc1)C[C@H]1c3cc(c(OC)cc3CCN1C)Oc1c(OC)c(OC)cc3c1[C@H](C2)N(C)CC3` [d-tetrandrine], for which the “rate of absorption into the bloodstream, free base versus di-acid salt” value in data set [1] (free base formulations compared with di-acid salt formulations) was “substantially as rapidly as formulations of the di-acid salt”. Further, the “d-tetrandrine plasma concentrations relative to the limit of the HPLC assay” value in data set [1] (rats, 100 mg/kg, liquid/suspension, oral gavage, sampled up to 48 hours, FIG. 4) is “well above the qualification limit of the HPLC assay for 48 hours”. Further, in data set [1] (rats, 100 mg/kg, oral gavage, p>0.05, FIG. 6), the “AUC estimates (Bailer method), acid versus base formulation” value is given as “no statistical or otherwise significant difference”. The “plasma concentrations and dose normalized plasma concentrations, comparison of d-tetrandrine and d-tetrandrine-2HCl formulations” value in data set [1] (rats, higher dose (approximately 230 mg/kg capsules, 200 mg/kg liquid/suspension), oral gavage, Student t-test, two-tailed, p>0.05, FIG. 2) is listed as “no statistical difference”. Besides, the solubility in water entry in data set [2] is on record as “did not dissolve in water”.

Source of the values: US9259420B2, “Tetrandrine pharmaceutical formulations” (CBA Pharma, Inc., priority 2012, dated 2016).
